Test results reported in publication PMC2666327 (Chembiochem : a European journal of chemical biology, 2008).

Biological target: T1, Type I Ins(1,4,5)P3 5-phosphatase (Homo sapiens, UniProt Q14642)
T1 sequence (Q14642 1-412 limits assumed): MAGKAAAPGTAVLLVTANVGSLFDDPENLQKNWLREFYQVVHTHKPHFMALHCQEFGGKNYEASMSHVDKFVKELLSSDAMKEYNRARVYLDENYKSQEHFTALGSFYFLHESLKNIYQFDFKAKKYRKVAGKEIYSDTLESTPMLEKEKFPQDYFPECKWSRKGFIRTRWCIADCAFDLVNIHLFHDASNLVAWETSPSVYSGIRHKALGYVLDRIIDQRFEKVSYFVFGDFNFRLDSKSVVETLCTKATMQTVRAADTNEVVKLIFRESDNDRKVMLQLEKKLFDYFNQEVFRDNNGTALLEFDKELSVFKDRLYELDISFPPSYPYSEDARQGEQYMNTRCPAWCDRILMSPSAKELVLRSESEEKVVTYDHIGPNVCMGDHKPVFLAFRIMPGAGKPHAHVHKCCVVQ
Test: [3H]Ins
Type: biochemical

IC50: 68 ± 16 µM
Compound: O=P(O)(O)Oc1ccc(OP(=O)(O)O)c(OP(=O)(O)O)c1OCc1ccccc1 [compound 30, 3-benzyloxybenzene 1,2,4-trisphosphate]
